The source of these data is patent US7462618B2, “Treatment of inflammatory autoimmune diseases with alpha-adrenergic antagonists and beta-adrenergic agonists” (Sun Health Research Institute, priority 2003, dated 2008).

In one assay the test system is IL-10/TNFα. As to the kind of experiment: Ex vivo IL-10 and TNFα production by cells of treated AA rats (sandwich ELISA). The class given is in vivo, rat. The following applies: for Ratio of IL-10/TNFα: cells cultured 24 h, mean ± SEM, N = 6. An excerpt:
To determine if the adrenergic drug treatments were able to modify cytokine patterns in the secondary lymphoid organs and systemically in the blood, pro- and anti-inflammatory cytokine profiles were obtained ex vivo from cells harvested from the draining (inguinal and poplitial) lymph nodes, spleen and the PBMC from the animals described above. All tissue culture media and supplements were obtained from Gibco BRL (Rockville, Md.) unless otherwise stated. OPTIA sandwich ELISA kits for IL-10 and TNFα were purchased from Pharmingen (San Diego, Calif.). The spleen and lymph nodes were aseptically removed from the animal and placed into Hank's balanced salt solution (HBSS). The spleens were placed in a stomacher bag and homogenized for 30 seconds. […] The collected cells were centrifuged and re-suspended in 5 ml of a NH4Cl hypotonic buffer for 3 min to lyse the red blood cells. The cells were washed 2× with 10 ml HBSS, centrifuged and re-suspended into complete RPMI 1640 media supplemented with 5% fetal calf serum and 1% antibiotic/antimycotic. The draining (inguinal and poplitial) lymph nodes were placed into sterile etri dishes containing 5 ml HBSS. […] The homogenates then were passed through a nylon mesh, centrifuged and re-suspended in 5 ml HBSS. The cells then were centrifuged and re-suspended into complete RPMI 1640 media supplemented with 5% fetal calf serum and 1% antibiotic/antimycotic. PBMCs: Blood was collected using cardiac puncture into a 7 ml lithium heparin vaccutainer tubes. The tubes were inverted 7 times and then spun down at 1000 rpm for 15 minutes at 10° C. The buffy coat was removed using a 2 ml pipette and placed into a sterile 15 ml tube containing 10 ml of a NH4Cl hypotonic buffer for 3 min to lyse the red blood cells. The peripheral blood mononuclear cells (PBMC) were centrifuged and re-suspended in 10 ml HBSS. The PBMC were washed three more times with 10 ml HBSS, centrifuged and re-suspended into complete RPMI 1640 media supplemented with 5% fetal calf serum and 1% antibiotic/antimycotic. The prepared cells were counted using a hemocytometer, then brought to the concentration of 2×10^6 cells/ml. Two ml of the cell preparation were plated into 24 well plates (Falcon, Oxnard, Calif.), and in placed in an incubator 7% CO2, 37° C., for 24 h. After 24 h the culture supernatants were harvested and placed in the freezer at -70° C. until ELISA assay. Optia kits for the detection of IL-10 and TNFα were obtained from BD Pharmingen (Los Angeles, Calif.) and sandwich ELISAs were used to measure the amount cytokine released into the culture media. In brief: High binding microtiter 96-well plates were pre-coated with 100 μl of capture antibody in coating buffer (0.1 M carbonate buffer, pH 9.5) for IL-2, IL-4, IFNγ and TNFα and (0.2 M phosphate buffer, pH 6.5) for IL-10. The plates were sealed with plate film (Denville Scientific, South Plainfield, N.J.) and placed at 4° C. overnight. The plates were allowed to come to room temperature and washed with 0.1 M phosphate buffered saline-0.5% Tween 20 (PBS-Tw20). The non-specific binding was blocked using PBS-Tw20 and 1% bovine serum albumin. Standard/sample was then added to each well, the plates were sealed and incubated overnight at 4° C. The plate was washed three times with PBS-Tw20 and biotinylated secondary detection antibody and streptavidin/avidin enzyme conjugate (diluted in PBS-1% bovine serum albumin) were added to the wells and the plates incubated for 1.5 h. The plates were then washed and developed with (TMB) reagent (Pharmingen, San Diego, Calif.) for 30 minutes. After color development the plates were stopped with addition of IN sulfuric acid. Unknown sample cytokine levels were determined through comparison with a standard curve present on each plate using an ELISA reader ([…]: Bio Tek Instruments Incorporated, Winooski, Vt.). […]
On the technique in general: An ELISA detects its analyte on a solid surface through an enzyme-linked reagent.

Assay [1] concerns Lewis rats with AA. Description: Adjuvant-induced arthritis, dorsoplantar footpad width (Example 1). Type of assay: in vivo, rat. Particulars: single drug i.p. twice a day from day 12; by day 28 post-adjuvant injection. On the procedure: Lewis rats with AA, a model for RA, were used to examine the combined action of the β2-adrenergic receptor agonist terbutaline and the non-specific α-AR antagonist phentolamine. AA was induced in adult male Lewis rats (200-225 gm) by a base of the tail intradermal injection of complete Freund's adjuvant (CFA). The CFA (0.03 g dried and heat killed Mycobacterium butyricum (Difco, Detroit, Mich.) emulsified in 10 ml sterile mineral oil) was prepared by grinding the M. butyricum with a mortar and pestle until the bacterial cell wall turned from a light beige to an eggshell white powder. The mineral oil was then slowly worked into the bacterial cell wall using the mortar and pestle. The suspension was treated with a sonic dismembraner for 5 minutes to ensure that the bacterial cell wall remained suspended in the mineral oil for animal injections. While there was variability in the severity of disease development between the preparations of adjuvant, there was very little variability within individual batches. […] The inflammatory response in the arthritic rats was assessed by routine methods previously described. Dorsoplantar width of the hind feet were measured using a Mitutoyo Corporation dial thickness gauge, beginning the day of CFA-immunization and continued approximately every other day until sacrifice. […]

In assay [2] the test system is Lewis rats with AA. As to the kind of experiment: Adjuvant-induced arthritis, radiographic scores of hind limbs (Example 1). Type of assay: in vivo, rat. The following applies: i.p. twice a day from day 12; day 28. The method, then:
Lewis rats with AA, a model for RA, were used to examine the combined action of the β2-adrenergic receptor agonist terbutaline and the non-specific α-AR antagonist phentolamine. AA was induced in adult male Lewis rats (200-225 gm) by a base of the tail intradermal injection of complete Freund's adjuvant (CFA). The CFA (0.03 g dried and heat killed Mycobacterium butyricum (Difco, Detroit, Mich.) emulsified in 10 ml sterile mineral oil) was prepared by grinding the M. butyricum with a mortar and pestle until the bacterial cell wall turned from a light beige to an eggshell white powder. The mineral oil was then slowly worked into the bacterial cell wall using the mortar and pestle. The suspension was treated with a sonic dismembraner for 5 minutes to ensure that the bacterial cell wall remained suspended in the mineral oil for animal injections. While there was variability in the severity of disease development between the preparations of adjuvant, there was very little variability within individual batches. All animals in each experiment were challenged with the same preparation of adjuvant and 100% of the animals developed arthritis. Phentolamine (an α-adrenergic receptor antagonist) and terbutaline (a β2-adrenergic receptor agonist) were obtained from Sigma Chemical Company (St. Louis, Mo.). Both adrenergic drugs were dissolved in 0.01 mM ascorbic acid in 0.9% sterile, endotoxin-free saline. Adrenergic therapy with phentolamine and/or terbutaline or vehicle was started on day 12 post-immunization, the time of disease onset, and continued until sacrifice. The dose of phentolamine (500 μg/Kg/day) and/or terbutaline (600 μg/day) were administered by intraperitoneal (i.p.) injections twice a day in a total volume of 500 μl per injection. […] X-rays were evaluated using a grading scale modified from Ackerman and coworkers. […] The radiographs were scored for each of the following characteristics: (1) swelling as indicated by the width of soft tissue shadows and alterations in the normal configuration of the soft tissue planes; (2) osteoporosis as measured by bone density (recognized by increases in radiolucency relative to uninvolved adjacent bone); (3) cartilage loss shown by narrowing of the joint spaces; and (4) heterotopic ossification defined as proliferation of new bone tissue (fine ossified line paralleling normal bone but not contiguous with calcified area of the bone itself). The radiographic scores for each category were added for both hind limbs giving a maximum score of 40, and the individual scores for each animal were then averaged within the treatment groups and expressed as a mean±standard error of the mean (SEM), and subjected to Kruskal-Wallis statistical analysis (non-parametric statistic equivalent to an ANOVA; p<0.05) followed by Dunn post-hoc testing. […]

Another assay has as its system Th2 cell clones. Particulars: treated before activation; cited from earlier work.
For assay [3], the system named is Th cells cultured with B cell clones. Particulars: applied to Th cells before activation, cited from earlier work.
A further assay concerns Th1 cell clones. The following applies: cited from earlier work.
For assay [4], the system named is animals with fully expressed AA. The following applies: cited from earlier work.
Assay [5] deals with collagen-induced arthritis. The following applies: in vivo; cited from earlier work.

On to `Cc1ccc(N(CC2=NCCN2)c2cccc(O)c2)cc1` [Phentolamine], for which the “Ratio of IL-10/TNFα” value with IL-10/TNFα (DLN) was found to be 1.0960 ± 0.1961; with IL-10/TNFα (PBL) it was 0.8067 ± 0.1762; in the assay on IL-10/TNFα (SPL) it was 3.3350 ± 0.6716. Besides, the “Ratio of anti- to pro-inflammatory cytokine production by macrophage cells” value in the assay with IL-10/TNFα (secondary lymphoid organs and peripheral blood) is reported as “increase”. Moreover, in the assay with Lewis rats with AA [1], the “Soft tissue swelling (dorsoplantar footpad width) compared with vehicle-treated AA rats” value is reported as “significantly decreased”. Besides, in the assay with Lewis rats with AA [2], the “Decrease in bone loss compared to vehicle-treated AA rats” value was 51%. Moreover, in the assay with Lewis rats with AA [2], the “Radiographic scores compared with vehicle controls” value is listed as “significantly reduced”.
Consider `CC(C)(C)NCC(O)c1cc(O)cc(O)c1` (centres unmarked) [Terbutaline, terbutaline], for which the “IL-4 or IL-10 production by Th2 cell clones” value in the assay with Th2 cell clones is given as “does not affect”. For the same compound, the “Ratio of IL-10/TNFα” value in the assay with IL-10/TNFα (DLN) turned out to be 1.5060 ± 0.1642; in the assay on IL-10/TNFα (PBL), 0.4382 ± 0.0471; in the assay on IL-10/TNFα (SPL), 2.1370 ± 0.8285. Besides, the IgG2a production result in assay [3] (blockable by nadolol or IFNγ) is “inhibited”. For the same compound, the IgG1 production entry in assay [3] is “not”. The “Soft tissue swelling (dorsoplantar footpad width) compared with vehicle-treated AA rats” value in the assay on Lewis rats with AA [1] is listed as “significantly decreased”. For the same compound, in the assay on Th1 cell clones, the “IL-2-dependent T cell proliferation” value is “reduced”. For the same compound, the “IL-2 and IFNγ production by Th1 cell clones” value with Th1 cell clones (treated before activation with antigen-specific B cells or anti-CD3 antibodies) is listed as “inhibits”. Besides, the “Decrease in bone loss compared to vehicle-treated AA rats” value in the assay with Lewis rats with AA [2] was ~50%. The “Radiographic scores compared with vehicle controls” value in the assay on Lewis rats with AA [2] is recorded as “significantly reduced”.
On to `O=P(O)(O)C(Cl)(Cl)P(=O)(O)O` [clodronate], for which the “Joint inflammation and destruction” value in assay [4] is “significantly reduced”.
As for `CC(C)(C)NCC(O)c1ccc(O)c(CO)c1` (centres unmarked) [salbutamol], in assay [5], the “Severity of collagen-induced arthritis” value was “reduces the severity”.
